Experimental findings from US20220257610A1, “Enhancing drug activity through accentuated buccal/sublingual administration” (priority 2019, published 2022) are described below.

Where two headings read alike, the source gives them in different places.

The conditions of test [1]: same or similar dose with permeability enhancers, compared with oral. The method, then:
The clinical trials were conducted in two parts. The first part consisted of the following stages.
Further trials were carried out to determine the duration of action glipizide and adjuvant combination.
To test the efficacy of adjuvant we compared the efficacy of 5 mg of sub-lingual glipizide with adjuvant, with 5 mg of sublingual glipizide without adjuvant. […] Finally tests were carried out to determine whether the adjuvant used participates in receptor binding process. Keeping the amount of glipizide at 5 mg the quantity of adjuvant were doubled.

Test [2] is described as follows: Comparative dosage study, sleep times in humans. As to conditions: much lower dose with adjuvant, compared with oral. It counts as in vivo. The text has this:
The best method for carrying out the invention: Alprazolam and adjuvant are formulated into sublingual tablets/sprays by conventional methods and administered and sleep times recorded for humans as well as animals.

For the compound `Cc1cnc(C(=O)NCCc2ccc(S(=O)(=O)NC(=O)NC3CCCCC3)cc2)cn1` [glipizide], the increase in effect in test [1] was found to be 3200%.
Regarding `Cc1nnc2n1-c1ccc(Cl)cc1C(c1ccccc1)=NC2` [alprazolam], the increase in effect in test [2] was 200%.
